In the NIST ThermoML archive (doi:10.1016/j.tca.2016.12.010):
± gives the expanded uncertainty stated by the source.

Legend:
[1] = xn = mol fraction of the nth substance listed; settings: 94.9 kPa, Liquid, Vibrating tube method
[2] = refractive index (Na D-line) (dimensionless); xn = mol fraction of the nth substance listed; settings: 94.9 kPa, Liquid, (Schmidt +Haensch) refractometer (Model DSR lambda)

CCCCCCCCO [octan-1-ol] + Cc1ccccc1
Settings	mass density, [1] [kg/m3]	refractive index, [2]
293.15 K, x1 = 0.1041	859.2 ± 4	1.48465 ± 0.0024
293.15 K, x1 = 0.1973	853.95 ± 4	1.4763 ± 0.0024
293.15 K, x1 = 0.3018	848.87 ± 4	1.4681 ± 0.0024
293.15 K, x1 = 0.4033	844.52 ± 4	1.46072 ± 0.0024
293.15 K, x1 = 0.5035	840.66 ± 4	1.45442 ± 0.0024
293.15 K, x1 = 0.6007	837.23 ± 4	1.44894 ± 0.0024
293.15 K, x1 = 0.6996	834.03 ± 4	1.44373 ± 0.0024
293.15 K, x1 = 0.793	831.2 ± 4	1.43912 ± 0.0024
293.15 K, x1 = 0.9044	828.07 ± 4	1.4338 ± 0.0024
293.15 K, x1 = 1	825.57 ± 4	1.4295 ± 0.0024
298.15 K, x1 = 0.1041	854.47 ± 4	1.48192 ± 0.0024
298.15 K, x1 = 0.1973	849.33 ± 4	1.47333 ± 0.0024
298.15 K, x1 = 0.3018	844.4 ± 4	1.46514 ± 0.0024
298.15 K, x1 = 0.4033	840.2 ± 4	1.45795 ± 0.0024
298.15 K, x1 = 0.5035	836.46 ± 4	1.45173 ± 0.0024
298.15 K, x1 = 0.6007	833.15 ± 4	1.44634 ± 0.0024
298.15 K, x1 = 0.6996	830.05 ± 4	1.44116 ± 0.0024
298.15 K, x1 = 0.793	827.33 ± 4	1.43666 ± 0.0024
298.15 K, x1 = 0.9044	824.31 ± 4	1.43178 ± 0.0024
298.15 K, x1 = 1	821.9 ± 4	1.42748 ± 0.0024
303.15 K, x1 = 0.1041	849.63 ± 4	1.47921 ± 0.0024
303.15 K, x1 = 0.1973	844.59 ± 4	1.47041 ± 0.0024
303.15 K, x1 = 0.3018	839.8 ± 4	1.46231 ± 0.0024
303.15 K, x1 = 0.4033	835.73 ± 4	1.45514 ± 0.0024
303.15 K, x1 = 0.5035	832.13 ± 4	1.44904 ± 0.0024
303.15 K, x1 = 0.6007	828.94 ± 4	1.44377 ± 0.0024
303.15 K, x1 = 0.6996	825.95 ± 4	1.43893 ± 0.0024
303.15 K, x1 = 0.793	823.32 ± 4	1.43469 ± 0.0024
303.15 K, x1 = 0.9044	820.4 ± 4	1.4298 ± 0.0024
303.15 K, x1 = 1	818.08 ± 4	1.42561 ± 0.0024
308.15 K, x1 = 0.1041	844.83 ± 4	1.47628 ± 0.0024
308.15 K, x1 = 0.1973	839.89 ± 4	1.46762 ± 0.0024
308.15 K, x1 = 0.3018	835.26 ± 4	1.45938 ± 0.0024
308.15 K, x1 = 0.4033	831.33 ± 4	1.45234 ± 0.0024
308.15 K, x1 = 0.5035	827.86 ± 4	1.44634 ± 0.0024
308.15 K, x1 = 0.6007	824.78 ± 4	1.44118 ± 0.0024
308.15 K, x1 = 0.6996	821.9 ± 4	1.43647 ± 0.0024
308.15 K, x1 = 0.793	819.36 ± 4	1.43239 ± 0.0024
308.15 K, x1 = 0.9044	816.55 ± 4	1.42757 ± 0.0024
308.15 K, x1 = 1	814.31 ± 4	1.42369 ± 0.0024
313.15 K, x1 = 0.1041	840.03 ± 4	1.47333 ± 0.0024
313.15 K, x1 = 0.1973	835.16 ± 4	1.46463 ± 0.0024
313.15 K, x1 = 0.3018	830.67 ± 4	1.45656 ± 0.0024
313.15 K, x1 = 0.4033	826.9 ± 4	1.44956 ± 0.0024
313.15 K, x1 = 0.5035	823.56 ± 4	1.44362 ± 0.0024
313.15 K, x1 = 0.6007	820.6 ± 4	1.43864 ± 0.0024
313.15 K, x1 = 0.6996	817.82 ± 4	1.43413 ± 0.0024
313.15 K, x1 = 0.793	815.37 ± 4	1.43002 ± 0.0024
313.15 K, x1 = 0.9044	812.65 ± 4	1.42559 ± 0.0024
313.15 K, x1 = 1	811.09 ± 4	1.42169 ± 0.0024
318.15 K, x1 = 0.1041	835.18 ± 4	1.47014 ± 0.0024
318.15 K, x1 = 0.1973	830.43 ± 4	1.46186 ± 0.0024
318.15 K, x1 = 0.3018	826.08 ± 4	1.45372 ± 0.0024
318.15 K, x1 = 0.4033	822.45 ± 4	1.44685 ± 0.0024
318.15 K, x1 = 0.5035	819.25 ± 4	1.44101 ± 0.0024
318.15 K, x1 = 0.6007	816.41 ± 4	1.43601 ± 0.0024
318.15 K, x1 = 0.6996	813.74 ± 4	1.43149 ± 0.0024
318.15 K, x1 = 0.793	811.38 ± 4	1.4277 ± 0.0024
318.15 K, x1 = 0.9044	808.77 ± 4	1.42342 ± 0.0024
318.15 K, x1 = 1	807.7 ± 4	1.41973 ± 0.0024
323.15 K, x1 = 0.1041	831.72 ± 4	1.46755 ± 0.0024
323.15 K, x1 = 0.1973	827.05 ± 4	1.45882 ± 0.0024
323.15 K, x1 = 0.3018	822.76 ± 4	1.45094 ± 0.0024
323.15 K, x1 = 0.4033	819.26 ± 4	1.44415 ± 0.0024
323.15 K, x1 = 0.5035	816.18 ± 4	1.43836 ± 0.0024
323.15 K, x1 = 0.6007	813.46 ± 4	1.43341 ± 0.0024
323.15 K, x1 = 0.6996	810.87 ± 4	1.42902 ± 0.0024
323.15 K, x1 = 0.793	808.58 ± 4	1.42541 ± 0.0024
323.15 K, x1 = 0.9044	806.05 ± 4	1.42136 ± 0.0024
323.15 K, x1 = 1	804.05 ± 4	1.41783 ± 0.0024
333.15 K, x1 = 0.1041	822.45 ± 4	1.46181 ± 0.0024
333.15 K, x1 = 0.1973	817.92 ± 4	1.45314 ± 0.0024
333.15 K, x1 = 0.3018	813.92 ± 4	1.44526 ± 0.0024
333.15 K, x1 = 0.4033	810.68 ± 4	1.43873 ± 0.0024
333.15 K, x1 = 0.5035	807.88 ± 4	1.43312 ± 0.0024
333.15 K, x1 = 0.6007	805.4 ± 4	1.42831 ± 0.0024
333.15 K, x1 = 0.6996	803.05 ± 4	1.42423 ± 0.0024
333.15 K, x1 = 0.793	800.97 ± 4	1.42094 ± 0.0024
333.15 K, x1 = 0.9044	798.68 ± 4	1.41714 ± 0.0024
333.15 K, x1 = 1	796.88 ± 4	1.41407 ± 0.0024

C1COCCN1 [tetrahydro-1,4-oxazine] + CCCCCCCCCCO
Settings	mass density, 293.15 K [kg/m3]	mass density, 303.15 K [kg/m3]	mass density, 313.15 K [kg/m3]	mass density, 323.15 K [kg/m3]	mass density, 333.15 K [kg/m3]	refractive index, 293.15 K	refractive index, 303.15 K	refractive index, 313.15 K	refractive index, 323.15 K	refractive index, 333.15 K
[1], x1 = 0.0959	842.65 ± 4	835.47 ± 4	828.35 ± 4	821.08 ± 4	813.99 ± 4	–	–	–	–	–
[1], x1 = 0.1972	856.26 ± 4	849.05 ± 4	841.76 ± 4	834.65 ± 4	827.15 ± 4	–	–	–	–	–
[1], x1 = 0.2983	870.74 ± 4	863.32 ± 4	855.74 ± 4	848.36 ± 4	840.7 ± 4	–	–	–	–	–
[1], x1 = 0.3997	886.54 ± 4	878.86 ± 4	870.94 ± 4	863.25 ± 4	855.26 ± 4	–	–	–	–	–
[1], x1 = 0.4984	902.71 ± 4	894.8 ± 4	886.64 ± 4	878.61 ± 4	870.39 ± 4	–	–	–	–	–
[1], x1 = 0.5901	918.62 ± 4	910.46 ± 4	902.16 ± 4	894.03 ± 4	885.58 ± 4	–	–	–	–	–
[1], x1 = 0.6748	933.78 ± 4	925.53 ± 4	916.99 ± 4	908.75 ± 4	900.13 ± 4	–	–	–	–	–
[1], x1 = 0.7975	957.46 ± 4	948.96 ± 4	940.35 ± 4	931.54 ± 4	922.67 ± 4	–	–	–	–	–
[1], x1 = 0.9053	980.12 ± 4	971.33 ± 4	961.51 ± 4	952.35 ± 4	943.05 ± 4	–	–	–	–	–
[1], x1 = 1	999.54 ± 4	989.89 ± 4	979.82 ± 4	969.78 ± 4	959.74 ± 4	–	–	–	–	–
[2], x1 = 0.0959	–	–	–	–	–	1.43851 ± 0.0024	1.43425 ± 0.0024	1.43051 ± 0.0024	1.42665 ± 0.0024	1.42296 ± 0.0024
[2], x1 = 0.1971	–	–	–	–	–	1.44011 ± 0.0024	1.43584 ± 0.0024	1.43195 ± 0.0024	1.42808 ± 0.0024	1.42408 ± 0.0024
[2], x1 = 0.2983	–	–	–	–	–	1.44177 ± 0.0024	1.4374 ± 0.0024	1.43335 ± 0.0024	1.42935 ± 0.0024	1.4252 ± 0.0024
[2], x1 = 0.3997	–	–	–	–	–	1.44353 ± 0.0024	1.43915 ± 0.0024	1.43498 ± 0.0024	1.43086 ± 0.0024	1.42655 ± 0.0024
[2], x1 = 0.4984	–	–	–	–	–	1.44523 ± 0.0024	1.4408 ± 0.0024	1.43652 ± 0.0024	1.43224 ± 0.0024	1.4278 ± 0.0024
[2], x1 = 0.5901	–	–	–	–	–	1.44686 ± 0.0024	1.44235 ± 0.0024	1.43799 ± 0.0024	1.43378 ± 0.0024	1.42913 ± 0.0024
[2], x1 = 0.6748	–	–	–	–	–	1.44835 ± 0.0024	1.44395 ± 0.0024	1.43952 ± 0.0024	1.43524 ± 0.0024	1.4304 ± 0.0024
[2], x1 = 0.7975	–	–	–	–	–	1.45055 ± 0.0024	1.44625 ± 0.0024	1.4419 ± 0.0024	1.43735 ± 0.0024	1.43224 ± 0.0024
[2], x1 = 0.9053	–	–	–	–	–	1.45253 ± 0.0024	1.44834 ± 0.0024	1.44365 ± 0.0024	1.43915 ± 0.0024	1.43382 ± 0.0024
[2], x1 = 1	–	–	–	–	–	1.45453 ± 0.0024	1.45031 ± 0.0024	1.44574 ± 0.0024	1.44113 ± 0.0024	1.43562 ± 0.0024
